In ChEMBL document CHEMBL4507289, “Data for DCP probe GSM1” (2021):

Key:
[1] = molecular target: Interleukin-1 receptor-associated kinase 4 (Homo sapiens) (UniProt Q9NWZ3); settings: Compound concentration 1000.0 nM
[2] = molecular target: NUAK family SNF1-like kinase 1 (Homo sapiens) (UniProt O60285); settings: Compound concentration 1000.0 nM
[3] = molecular target: 3-phosphoinositide-dependent protein kinase 1 (Homo sapiens) (UniProt O15530); settings: Compound concentration 1000.0 nM
[4] = molecular target: Mitogen-activated protein kinase kinase kinase 5 (Homo sapiens) (UniProt Q99683); settings: Compound concentration 1000.0 nM
[5] = molecular target: Serine/threonine-protein kinase Sgk2 (Homo sapiens) (UniProt Q9HBY8); settings: Compound concentration 1000.0 nM
[6] = molecular target: Serine/threonine-protein kinase pim-2 (Homo sapiens) (UniProt Q9P1W9); settings: Compound concentration 1000.0 nM
[7] = test system: Receptor-type tyrosine-protein kinase FLT3 (Homo sapiens), P36888 [UNDEFINED MUTATION]; settings: Compound concentration 1000.0 nM
[8] = molecular target: Mitogen-activated protein kinase 1 (Homo sapiens) (UniProt P28482); settings: Compound concentration 1000.0 nM
[9] = molecular target: Ephrin type-A receptor 5 (Homo sapiens) (UniProt P54756); settings: Compound concentration 1000.0 nM
[10] = test system: Proto-oncogene tyrosine-protein kinase receptor Ret (Homo sapiens), P07949 [V804L]; settings: Compound concentration 1000.0 nM
[11] = molecular target: Inhibitor of nuclear factor kappa-B kinase subunit beta (Homo sapiens) (UniProt O14920); settings: Compound concentration 1000.0 nM
[12] = molecular target: Wee1-like protein kinase 2 (Homo sapiens) (UniProt P0C1S8); settings: Compound concentration 1000.0 nM
[13] = molecular target: Protein kinase C epsilon type (Homo sapiens) (UniProt Q02156); settings: Compound concentration 1000.0 nM
[14] = molecular target: Serine/threonine-protein kinase Nek6 (Homo sapiens) (UniProt Q9HC98); settings: Compound concentration 1000.0 nM
[15] = test system: Epidermal growth factor receptor (Homo sapiens), P00533 [T790M]; settings: Compound concentration 1000.0 nM
[16] = molecular target: Serine/threonine-protein kinase PknB (Mycobacterium tuberculosis) (UniProt P9WI81); settings: Compound concentration 1000.0 nM
[17] = molecular target: Mitogen-activated protein kinase kinase kinase 3 (Homo sapiens) (UniProt Q99759); settings: Compound concentration 1000.0 nM
[18] = molecular target: Phosphatidylinositol 4,5-bisphosphate 3-kinase catalytic subunit beta isoform (Homo sapiens) (UniProt P42338); settings: Compound concentration 1000.0 nM
[19] = molecular target: Serine/threonine-protein kinase DCLK1 (Homo sapiens) (UniProt O15075); settings: Compound concentration 1000.0 nM
[20] = test system: Mast/stem cell growth factor receptor Kit (Homo sapiens), P10721 [V559D,V654A]; settings: Compound concentration 1000.0 nM
[21] = molecular target: Atypical kinase COQ8B, mitochondrial (Homo sapiens) (UniProt Q96D53); settings: Compound concentration 1000.0 nM
[22] = molecular target: Non-receptor tyrosine-protein kinase TNK1 (Homo sapiens) (UniProt Q13470); settings: Compound concentration 1000.0 nM
[23] = molecular target: Serine/threonine-protein kinase WNK4 (Homo sapiens) (UniProt Q96J92); settings: Compound concentration 1000.0 nM
[24] = molecular target: Wee1-like protein kinase (Homo sapiens) (UniProt P30291); settings: Compound concentration 1000.0 nM
[25] = molecular target: Serine/threonine-protein kinase 17A (Homo sapiens) (UniProt Q9UEE5); settings: Compound concentration 1000.0 nM
[26] = molecular target: Myosin light chain kinase, smooth muscle (Homo sapiens) (UniProt Q15746); settings: Compound concentration 1000.0 nM
[27] = test system: Receptor-type tyrosine-protein kinase FLT3 (Homo sapiens), P36888 [R834Q]; settings: Compound concentration 1000.0 nM
[28] = molecular target: Cyclin-dependent kinase 15 (Homo sapiens) (UniProt Q96Q40); settings: Compound concentration 1000.0 nM
[29] = molecular target: LIM domain kinase 2 (Homo sapiens) (UniProt P53671); settings: Compound concentration 1000.0 nM
[30] = molecular target: STE20-like serine/threonine-protein kinase (Homo sapiens) (UniProt Q9H2G2); settings: Compound concentration 1000.0 nM
[31] = molecular target: Atypical kinase COQ8A, mitochondrial (Homo sapiens) (UniProt Q8NI60); settings: Compound concentration 1000.0 nM
[32] = molecular target: Phosphorylase b kinase gamma catalytic chain, skeletal muscle/heart isoform (Homo sapiens) (UniProt Q16816); settings: Compound concentration 1000.0 nM
[33] = molecular target: Tyrosine-protein kinase receptor UFO (Homo sapiens) (UniProt P30530); settings: Compound concentration 1000.0 nM
[34] = molecular target: Serine/threonine-protein kinase WNK3 (Homo sapiens) (UniProt Q9BYP7); settings: Compound concentration 1000.0 nM
[35] = molecular target: Casein kinase II subunit alpha (Homo sapiens) (UniProt P68400); settings: Compound concentration 1000.0 nM
[36] = molecular target: Phosphatidylinositol 4,5-bisphosphate 3-kinase catalytic subunit delta isoform (Homo sapiens) (UniProt O00329); settings: Compound concentration 1000.0 nM
[37] = molecular target: Serine/threonine-protein kinase 10 (Homo sapiens) (UniProt O94804); settings: Compound concentration 1000.0 nM
[38] = molecular target: Ephrin type-B receptor 1 (Homo sapiens) (UniProt P54762); settings: Compound concentration 1000.0 nM
[39] = molecular target: SRSF protein kinase 3 (Homo sapiens) (UniProt Q9UPE1); settings: Compound concentration 1000.0 nM
[40] = molecular target: Cytoplasmic tyrosine-protein kinase BMX (Homo sapiens) (UniProt P51813); settings: Compound concentration 1000.0 nM
[41] = molecular target: Receptor-interacting serine/threonine-protein kinase 1 (Homo sapiens) (UniProt Q13546); settings: Compound concentration 1000.0 nM
[42] = molecular target: Ribosomal protein S6 kinase alpha-2 (Homo sapiens) (UniProt Q15349); settings: Compound concentration 1000.0 nM
[43] = molecular target: Histamine H4 receptor (Homo sapiens) (UniProt Q9H3N8); settings: Compound concentration 10.0 uM
[44] = test system: Epidermal growth factor receptor (Homo sapiens), P00533 [L858R]; settings: Compound concentration 1000.0 nM
[45] = molecular target: Serine/threonine-protein kinase Sgk3 (Homo sapiens) (UniProt Q96BR1); settings: Compound concentration 1000.0 nM

Chain of Cytoplasmic tyrosine-protein kinase BMX (Homo sapiens) (P51813 whole entry): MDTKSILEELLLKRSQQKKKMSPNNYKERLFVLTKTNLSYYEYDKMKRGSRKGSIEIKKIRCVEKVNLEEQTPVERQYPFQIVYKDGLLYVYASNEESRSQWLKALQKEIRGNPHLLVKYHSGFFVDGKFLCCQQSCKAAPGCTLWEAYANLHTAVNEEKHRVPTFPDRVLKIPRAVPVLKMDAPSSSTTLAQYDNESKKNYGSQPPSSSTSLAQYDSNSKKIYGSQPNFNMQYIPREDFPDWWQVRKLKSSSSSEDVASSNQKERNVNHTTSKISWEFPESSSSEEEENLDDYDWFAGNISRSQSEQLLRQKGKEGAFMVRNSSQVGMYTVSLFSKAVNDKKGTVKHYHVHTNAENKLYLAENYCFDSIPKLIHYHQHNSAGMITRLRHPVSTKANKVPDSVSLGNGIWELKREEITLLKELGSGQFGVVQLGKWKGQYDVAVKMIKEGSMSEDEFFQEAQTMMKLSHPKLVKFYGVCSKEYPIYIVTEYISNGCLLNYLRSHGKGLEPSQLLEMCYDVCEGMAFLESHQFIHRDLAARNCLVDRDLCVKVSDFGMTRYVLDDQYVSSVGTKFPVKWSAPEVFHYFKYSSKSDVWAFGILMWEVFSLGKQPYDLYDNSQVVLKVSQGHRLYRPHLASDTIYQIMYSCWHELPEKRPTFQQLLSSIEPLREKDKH
Chain of Inhibitor of nuclear factor kappa-B kinase subunit beta (Homo sapiens) (O14920 whole entry): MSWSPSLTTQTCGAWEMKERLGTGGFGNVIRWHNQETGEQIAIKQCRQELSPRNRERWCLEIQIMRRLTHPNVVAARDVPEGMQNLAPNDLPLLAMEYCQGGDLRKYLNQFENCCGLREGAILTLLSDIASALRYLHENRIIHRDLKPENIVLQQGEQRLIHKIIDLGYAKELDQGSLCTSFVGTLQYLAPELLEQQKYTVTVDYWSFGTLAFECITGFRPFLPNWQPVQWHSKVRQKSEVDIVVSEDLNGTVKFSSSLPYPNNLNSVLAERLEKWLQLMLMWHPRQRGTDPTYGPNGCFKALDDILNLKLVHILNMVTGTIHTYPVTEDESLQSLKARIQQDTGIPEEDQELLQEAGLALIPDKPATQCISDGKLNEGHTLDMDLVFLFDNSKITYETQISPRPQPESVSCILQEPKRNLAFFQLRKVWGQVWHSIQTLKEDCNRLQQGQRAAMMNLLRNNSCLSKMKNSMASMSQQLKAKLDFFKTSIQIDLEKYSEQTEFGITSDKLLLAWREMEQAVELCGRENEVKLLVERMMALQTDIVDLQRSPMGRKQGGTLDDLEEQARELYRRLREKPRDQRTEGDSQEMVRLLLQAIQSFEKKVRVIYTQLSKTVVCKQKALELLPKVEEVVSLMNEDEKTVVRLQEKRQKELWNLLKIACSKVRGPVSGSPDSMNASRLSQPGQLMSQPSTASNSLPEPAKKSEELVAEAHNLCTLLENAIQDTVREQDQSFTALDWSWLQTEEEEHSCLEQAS
Chain of Mitogen-activated protein kinase 1 (Homo sapiens) (P28482 whole entry): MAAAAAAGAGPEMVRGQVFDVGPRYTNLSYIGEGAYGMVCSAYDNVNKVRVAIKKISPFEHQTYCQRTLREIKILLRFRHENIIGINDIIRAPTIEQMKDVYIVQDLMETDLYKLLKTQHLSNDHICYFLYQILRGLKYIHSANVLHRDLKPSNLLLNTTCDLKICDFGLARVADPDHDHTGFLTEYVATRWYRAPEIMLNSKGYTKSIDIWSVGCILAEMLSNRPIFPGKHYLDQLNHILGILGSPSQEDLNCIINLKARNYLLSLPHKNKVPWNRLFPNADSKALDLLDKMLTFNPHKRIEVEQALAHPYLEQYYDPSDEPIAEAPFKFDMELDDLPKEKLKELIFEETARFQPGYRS
Chain of Wee1-like protein kinase 2 (Homo sapiens) (P0C1S8 whole entry, looked up): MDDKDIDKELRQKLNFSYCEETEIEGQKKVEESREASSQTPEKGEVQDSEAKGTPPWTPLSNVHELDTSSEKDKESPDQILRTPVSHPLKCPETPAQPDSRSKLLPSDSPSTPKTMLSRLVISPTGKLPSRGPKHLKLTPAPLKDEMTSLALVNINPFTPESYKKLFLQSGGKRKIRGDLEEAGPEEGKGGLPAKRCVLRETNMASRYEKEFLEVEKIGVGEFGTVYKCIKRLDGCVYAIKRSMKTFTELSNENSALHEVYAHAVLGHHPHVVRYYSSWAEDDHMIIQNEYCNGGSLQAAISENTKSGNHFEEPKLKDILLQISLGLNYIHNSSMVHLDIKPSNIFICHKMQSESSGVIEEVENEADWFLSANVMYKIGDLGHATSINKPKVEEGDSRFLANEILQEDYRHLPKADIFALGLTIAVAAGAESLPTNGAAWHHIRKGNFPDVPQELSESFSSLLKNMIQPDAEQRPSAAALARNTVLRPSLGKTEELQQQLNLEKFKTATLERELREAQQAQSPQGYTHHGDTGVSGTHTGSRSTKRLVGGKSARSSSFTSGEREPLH
Chain of Protein kinase C epsilon type (Homo sapiens) (Q02156 whole entry): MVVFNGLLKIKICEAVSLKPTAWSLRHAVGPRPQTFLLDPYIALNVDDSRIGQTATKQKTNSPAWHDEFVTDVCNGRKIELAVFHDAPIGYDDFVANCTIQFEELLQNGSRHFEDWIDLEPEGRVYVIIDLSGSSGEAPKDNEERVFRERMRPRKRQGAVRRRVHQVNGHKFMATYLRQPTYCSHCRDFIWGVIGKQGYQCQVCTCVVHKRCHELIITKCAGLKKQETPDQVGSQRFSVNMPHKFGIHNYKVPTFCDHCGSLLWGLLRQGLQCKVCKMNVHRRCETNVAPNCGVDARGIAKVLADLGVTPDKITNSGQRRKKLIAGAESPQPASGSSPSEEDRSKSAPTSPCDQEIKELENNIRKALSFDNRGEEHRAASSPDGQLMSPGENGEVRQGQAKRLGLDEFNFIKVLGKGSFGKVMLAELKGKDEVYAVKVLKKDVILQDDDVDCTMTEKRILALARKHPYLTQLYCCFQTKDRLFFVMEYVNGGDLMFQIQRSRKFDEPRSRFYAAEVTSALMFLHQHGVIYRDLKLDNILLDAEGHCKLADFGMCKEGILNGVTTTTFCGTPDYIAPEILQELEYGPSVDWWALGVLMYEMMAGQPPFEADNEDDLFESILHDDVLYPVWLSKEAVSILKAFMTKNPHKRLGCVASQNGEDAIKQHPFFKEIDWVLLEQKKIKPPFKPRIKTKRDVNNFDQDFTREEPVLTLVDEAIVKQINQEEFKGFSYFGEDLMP
Chain of Serine/threonine-protein kinase 10 (Homo sapiens) (O94804 whole entry, looked up): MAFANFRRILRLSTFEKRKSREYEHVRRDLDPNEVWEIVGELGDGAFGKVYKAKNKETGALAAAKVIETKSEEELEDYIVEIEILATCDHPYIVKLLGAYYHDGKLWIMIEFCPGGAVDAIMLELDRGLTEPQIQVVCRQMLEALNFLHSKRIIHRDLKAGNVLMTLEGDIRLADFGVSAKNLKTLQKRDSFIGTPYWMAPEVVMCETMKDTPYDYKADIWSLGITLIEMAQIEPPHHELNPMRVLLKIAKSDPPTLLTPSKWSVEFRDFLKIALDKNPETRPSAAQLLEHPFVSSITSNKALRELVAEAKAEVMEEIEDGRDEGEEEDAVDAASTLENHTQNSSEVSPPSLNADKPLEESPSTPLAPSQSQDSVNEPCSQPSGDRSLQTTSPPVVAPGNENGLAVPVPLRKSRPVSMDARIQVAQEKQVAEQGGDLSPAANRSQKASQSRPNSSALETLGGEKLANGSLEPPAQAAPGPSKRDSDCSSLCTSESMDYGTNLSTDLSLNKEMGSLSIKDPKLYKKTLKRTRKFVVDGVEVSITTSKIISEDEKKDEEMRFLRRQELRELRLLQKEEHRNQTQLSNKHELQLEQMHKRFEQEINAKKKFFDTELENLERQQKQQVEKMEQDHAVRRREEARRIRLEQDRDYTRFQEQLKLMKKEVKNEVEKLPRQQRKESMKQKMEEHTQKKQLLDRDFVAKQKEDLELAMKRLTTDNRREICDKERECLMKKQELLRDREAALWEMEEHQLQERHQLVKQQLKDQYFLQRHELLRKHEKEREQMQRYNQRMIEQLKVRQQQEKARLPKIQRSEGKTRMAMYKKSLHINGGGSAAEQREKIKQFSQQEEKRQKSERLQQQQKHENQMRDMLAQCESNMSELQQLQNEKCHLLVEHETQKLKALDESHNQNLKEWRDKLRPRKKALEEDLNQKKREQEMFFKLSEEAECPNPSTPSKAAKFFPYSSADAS
Chain of Interleukin-1 receptor-associated kinase 4 (Homo sapiens) (Q9NWZ3 whole entry): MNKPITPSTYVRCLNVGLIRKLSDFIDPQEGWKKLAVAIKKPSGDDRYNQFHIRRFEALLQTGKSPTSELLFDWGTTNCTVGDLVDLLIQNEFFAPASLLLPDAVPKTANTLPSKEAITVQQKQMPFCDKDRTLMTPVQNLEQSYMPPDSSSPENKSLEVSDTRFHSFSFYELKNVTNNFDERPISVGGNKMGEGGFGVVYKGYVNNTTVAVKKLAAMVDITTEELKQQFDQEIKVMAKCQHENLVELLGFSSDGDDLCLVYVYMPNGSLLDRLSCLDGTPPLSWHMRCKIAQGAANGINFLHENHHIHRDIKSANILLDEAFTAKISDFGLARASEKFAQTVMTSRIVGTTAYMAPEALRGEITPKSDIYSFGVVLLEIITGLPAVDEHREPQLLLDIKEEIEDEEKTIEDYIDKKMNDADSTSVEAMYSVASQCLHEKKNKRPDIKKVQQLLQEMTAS
Chain of Serine/threonine-protein kinase Nek6 (Homo sapiens) (Q9HC98 whole entry): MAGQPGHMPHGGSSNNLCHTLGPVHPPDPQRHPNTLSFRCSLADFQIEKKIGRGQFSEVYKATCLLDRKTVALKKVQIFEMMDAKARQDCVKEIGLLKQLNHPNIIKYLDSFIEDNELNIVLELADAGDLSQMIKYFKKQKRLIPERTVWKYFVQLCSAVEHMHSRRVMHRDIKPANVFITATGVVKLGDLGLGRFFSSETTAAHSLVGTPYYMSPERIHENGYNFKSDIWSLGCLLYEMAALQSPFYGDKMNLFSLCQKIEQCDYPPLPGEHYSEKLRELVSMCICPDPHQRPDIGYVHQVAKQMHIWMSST

COc1cc(-c2cn([C@H]3CCc4c(F)cccc4N(CC(F)(F)F)C3=O)nn2)ccc1-n1cnc(C)c1
inactive: residual activity [1] 100% | residual activity [2] 100% | residual activity [3] 93% | residual activity [4] 100% | residual activity [5] 95% | residual activity [6] 100% | residual activity [7] 100% | residual activity [8] 100% | residual activity [9] 100% | residual activity [10] 100% | residual activity [11] 100% | residual activity [12] 100% | residual activity [13] 100% | residual activity [14] 100% | residual activity [15] 83% | residual activity [16] 82% | residual activity [17] 100% | residual activity [18] 100% | residual activity [19] 100% | residual activity [20] 97% | residual activity [21] 77% | residual activity [22] 100% | residual activity [23] 100% | residual activity [24] 79% | residual activity [25] 100% | residual activity [26] 81% | residual activity [27] 100% | residual activity [28] 100% | residual activity [29] 100% | residual activity [30] 100% | residual activity [31] 100% | residual activity [32] 78% | residual activity [33] 98% | residual activity [34] 100% | residual activity [35] 100% | residual activity [36] 100% | residual activity [37] 100% | residual activity [38] 100% | residual activity [39] 100% | residual activity [40] 100% | residual activity [41] 100% | residual activity [42] 100% | inhibition [43] -2.49% | residual activity [44] 100% | residual activity [45] 100%

COc1cc(-c2cn([C@H]3CCc4ccccc4N(CC(F)(F)F)C3=O)nn2)ccc1-n1ccc(C)n1
inactive: residual activity [1] 95% | residual activity [2] 92% | residual activity [3] 100% | residual activity [4] 100% | residual activity [5] 100% | residual activity [6] 100% | residual activity [7] 99% | residual activity [8] 100% | residual activity [9] 100% | residual activity [10] 100% | residual activity [11] 99% | residual activity [12] 100% | residual activity [13] 100% | residual activity [14] 100% | residual activity [15] 59% | residual activity [16] 78% | residual activity [17] 88% | residual activity [18] 100% | residual activity [19] 100% | residual activity [20] 100% | residual activity [21] 100% | residual activity [22] 100% | residual activity [23] 100% | residual activity [24] 100% | residual activity [25] 100% | residual activity [26] 80% | residual activity [27] 100% | residual activity [28] 100% | residual activity [29] 100% | residual activity [30] 100% | residual activity [31] 100% | residual activity [32] 80% | residual activity [33] 93% | residual activity [34] 100% | residual activity [35] 81% | residual activity [36] 100% | residual activity [37] 100% | residual activity [38] 100% | residual activity [39] 100% | residual activity [40] 100% | residual activity [41] 100% | residual activity [42] 100% | inhibition [43] 9.63% | residual activity [44] 97% | residual activity [45] 84%
